“Also recorded” adds a separate entry of the source.
Experiments:
[1] = system: experimental amnesia in mice; experiment: step-down type passive avoidance response test, cycloheximide-induced amnesia in mice; format: in vivo, mouse (male ddy-mice); settings: for Residence time: 24 h, max 300 s, control mice 220 ± 37
Description: These experiments were performed using male ddy-mice having an average body weight of 25 g as the test animal. A platform in cubic form having a length of 4 cm for each side of the cube was arranged in a cage on the floor of the cage. Each mouse was placed on the platform. An electric current-feeding device had been provided on the floor area of the cage which positioned outside the platform. It was so arranged that whenever the mouse descended onto the floor from the platform, a 60 V electric current was caused to pass through the floor for 0.5 second to shock the mouse so as to have the mouse learn the shocking passage of electric current. Immediately after the mouse's learning, the mouse was subcutaneously administered with 30 mg/kg of cycloheximide so as to induce experimental amnesia. Each test compound had been intraperitoneally administered to the mouse at a time of 15 minutes before the mouse's learing was commenced. Upon an elapsed time of 24 hours after the completion of the mouse's learning for the electric current passage, the mouse treated as above was again placed on the same platform in the same cage under the same conditions, and the residence time of the mouse staying on the platform was measured under a pre-requisit that a maximum residence time as determined was set to be up to 300 seconds.
The results of the experiments for the cycloheximide-induced amnestic mice as treated by the previous intraperitoneal administration of the test compound of this invention are summarized in Table 2 below.

[2] = molecular target: angiotension-conversion enzyme (ACE) (Homo sapiens, UniProt P12821); experiment: ACE-inhibitory activity (method of Analytical Biochemistry 84, 361 (1978)); format: biochemical
angiotension-conversion enzyme (ACE), sequence (P12821 30-1306, species assumed): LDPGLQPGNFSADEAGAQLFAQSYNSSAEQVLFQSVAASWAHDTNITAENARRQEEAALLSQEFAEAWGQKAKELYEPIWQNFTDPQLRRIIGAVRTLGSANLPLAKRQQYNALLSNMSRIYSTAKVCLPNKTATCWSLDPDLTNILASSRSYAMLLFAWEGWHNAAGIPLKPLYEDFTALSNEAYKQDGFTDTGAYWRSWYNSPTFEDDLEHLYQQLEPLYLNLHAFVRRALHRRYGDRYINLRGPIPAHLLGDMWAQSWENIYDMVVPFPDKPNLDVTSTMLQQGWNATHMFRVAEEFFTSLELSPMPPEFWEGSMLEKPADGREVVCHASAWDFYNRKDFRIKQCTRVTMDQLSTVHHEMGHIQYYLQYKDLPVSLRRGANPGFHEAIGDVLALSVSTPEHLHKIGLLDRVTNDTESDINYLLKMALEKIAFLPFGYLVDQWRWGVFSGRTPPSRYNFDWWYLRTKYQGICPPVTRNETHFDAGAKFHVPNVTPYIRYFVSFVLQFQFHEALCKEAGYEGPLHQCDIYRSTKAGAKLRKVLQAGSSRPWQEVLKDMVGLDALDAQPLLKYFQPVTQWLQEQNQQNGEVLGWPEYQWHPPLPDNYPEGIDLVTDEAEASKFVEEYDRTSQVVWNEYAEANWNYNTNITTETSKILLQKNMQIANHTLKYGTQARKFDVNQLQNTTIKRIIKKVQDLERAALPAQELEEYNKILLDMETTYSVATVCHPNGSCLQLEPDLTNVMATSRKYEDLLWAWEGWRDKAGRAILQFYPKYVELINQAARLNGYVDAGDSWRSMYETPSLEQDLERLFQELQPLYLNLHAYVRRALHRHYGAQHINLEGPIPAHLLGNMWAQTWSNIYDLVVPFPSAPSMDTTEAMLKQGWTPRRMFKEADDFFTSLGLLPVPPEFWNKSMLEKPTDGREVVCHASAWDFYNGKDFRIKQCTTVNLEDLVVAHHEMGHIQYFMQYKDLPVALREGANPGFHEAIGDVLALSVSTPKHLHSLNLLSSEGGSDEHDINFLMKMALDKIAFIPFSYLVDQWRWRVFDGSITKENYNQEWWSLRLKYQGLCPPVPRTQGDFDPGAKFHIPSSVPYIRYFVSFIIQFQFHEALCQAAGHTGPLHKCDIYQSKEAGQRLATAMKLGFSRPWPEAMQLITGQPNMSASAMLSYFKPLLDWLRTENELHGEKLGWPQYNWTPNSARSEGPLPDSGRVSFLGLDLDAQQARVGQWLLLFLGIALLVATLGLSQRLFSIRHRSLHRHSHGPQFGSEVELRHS
From the text: The enzyme-inhibitory activity of the test compounds against ACE were estimated in accordance with a method as described in the literature "Analytical Biochemistry", 84, 361 (1978).

[3] = molecular target: T1, post-proline-cleaving enzyme (PPCE) (Sus scrofa, UniProt P23687); experiment: PPCE-inhibitory activity (substrate Z-Gly-Pro-PNA); format: biochemical, swine; settings: for IC50: 37° C., 15 minutes, PPCE from swine kidney
T1 construct: PPCE used was an enzyme preparation made from swine kidney; from tissue; host or cells: swine kidney, ammonium sulfate fractionation and DEAE-Sephadex chromatography
T1 sequence (P23687 whole entry): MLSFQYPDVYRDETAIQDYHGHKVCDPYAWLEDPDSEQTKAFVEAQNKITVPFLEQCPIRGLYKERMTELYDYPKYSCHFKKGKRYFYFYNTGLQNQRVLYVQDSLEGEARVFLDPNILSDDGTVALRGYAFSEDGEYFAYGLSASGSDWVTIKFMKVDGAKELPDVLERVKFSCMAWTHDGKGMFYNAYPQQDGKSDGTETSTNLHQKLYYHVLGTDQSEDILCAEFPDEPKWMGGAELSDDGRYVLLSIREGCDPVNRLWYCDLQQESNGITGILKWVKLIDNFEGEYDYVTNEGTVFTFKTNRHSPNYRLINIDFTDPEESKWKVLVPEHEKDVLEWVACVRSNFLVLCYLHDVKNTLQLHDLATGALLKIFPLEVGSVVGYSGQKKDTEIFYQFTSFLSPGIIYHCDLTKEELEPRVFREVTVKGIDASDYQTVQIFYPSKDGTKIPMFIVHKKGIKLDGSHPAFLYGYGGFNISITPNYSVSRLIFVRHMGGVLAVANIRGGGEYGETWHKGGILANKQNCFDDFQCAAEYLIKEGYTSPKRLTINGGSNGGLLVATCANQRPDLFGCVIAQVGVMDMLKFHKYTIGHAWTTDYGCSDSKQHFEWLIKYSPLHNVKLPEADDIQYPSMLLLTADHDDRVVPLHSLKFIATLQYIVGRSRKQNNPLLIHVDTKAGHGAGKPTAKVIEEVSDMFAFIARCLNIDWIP
Description: The enzyme-inhibitory activities of these test compounds against PPCE were estimated by adding a substrate compound of the formula [drawing 18] namely, N-benzyloxycarbonyl-glycyl-prolyl-p-nitroanilide (Z-Gly-Pro-PNA) to a solution of an enzyme, then adding to the solution each test compound having the enzyme-inhibiting activity to be assayed, reacting the substrate, the enzyme and the test compounds with each other at 37° C. for 15 minutes and then measuring the consumed amount of the substrate in terms of the determined reduction in the absorbency of a ultraviolet ray of a given wave length which transmitted the reaction solution where the substrate compounds, the enzyme and the enzyme-inhibiting test compound have been reacted with each other. In these tests, PPCE used was an enzyme preparation made from swine kidney and prior to its use, was purified by fractionation with ammonium sulfate and by subsequent chromatography on DEAE-Sephadex agent.

peptidases = settings: Journal of Antibiotics 38, 1629-1630 (1985); cited from earlier work
[4] = U.S. Pat. No. 3,240,787; cited from earlier work
[5] = Kokai No. 15840/86; U.S. Pat. No. 4,663,342; cited from earlier work
[6] = system: enkephalin-degrading enzymes; settings: Kokai No. 4228/87; cited from earlier work
[7] = Kokai No. 4228/87; cited from earlier work

IC50 [2] [µM]	IC50 [3] [nM]	SMILES	ACE-inhibitory activity (in words) [2]	PPCE-inhibitory activity (in words) [3]	also measured
> 135	> 135000	CCCCC[C@H](CC(=O)O)C(=O)N[C@H](C(=O)N1CCC[C@H]1CO)C(C)C [Compound of the Formula (III), (2S)-2-pentylsuccinyl-L-valyl-L-prolinol]			
> 136	84.1	CCCCC[C@H](CC(=O)O)C(=O)N[C@H](C(=O)N1CCC[C@H]1C=O)C(C)C [Example 1, (2S)-2-pentylsuccinyl-L-valyl-L-prolinal]			

Continued, molecule first:

SMILES	IC50 [2] [µM]	IC50 [3] [nM]	ACE-inhibitory activity (in words) [2]	PPCE-inhibitory activity (in words) [3]	also measured
C[C@@H]1C[C@@H]([C@H](O)CC2CC(=O)NC(=O)C2)C(=O)[C@@H](C)C1 [cycloheximide]					Residence time ([1]; cycloheximide alone (comparative), 30 mg/kg s.c. after learning, n=10): 114 ± 26 s
CCCCC[C@H](CC(=O)OCC)C(=O)N[C@H](C(=O)N1CCC[C@H]1C=O)C(C)C [Example 2, (2S)-3-Ethoxycarbonyl-2-pentylpropionyl-L-valyl-L-prolinal]	> 126	55.5	no enzyme-inhibitory activity against ACE	strong PPCE-inhibitory activity	Residence time ([1]; 3 mg/kg i.p. 15 min before learning, cycloheximide 30 mg/kg s.c., n=9, cycloheximide alone 114 ± 26): 188 ± 35 s; Residence time ([1]; 10 mg/kg i.p. 15 min before learning, cycloheximide 30 mg/kg s.c., n=9, cycloheximide alone 114 ± 26): 180 ± 26 s; therapeutic effects to treat the experimental amnesia (in words) ([1]; cycloheximide-induced amnesia, mice): marked therapeutic effects
CCCCC[C@H](CC(=O)NO)C(=O)N[C@H](C(=O)N1CCC[C@H]1CO)C(C)C [Actinonin]	37.9	77800	medium enzyme-inhibitory activity; also recorded: medium enzyme-inhibitory activities	medium enzyme-inhibitory activity; also recorded: medium enzyme-inhibitory activities	inhibition of peptidases (in words) (peptidases): inhibit a wide variety of peptidases; antibacterial activity (in words) [4]: antibacterial activity; immunopotentiating activity (in words) [5]: immunopotentiating activity; inhibition of the enkephalin-degrading enzymes (in words) [6]: can inhibit the enkephalin-degrading enzymes; anodyne activity (in words) [7]: anodyne activity
